Source: patent US20240254109A1, “SALT CONTAINING PIPERAZINE POLYCYCLIC DERIVATIVE, CRYSTAL FORM THEREOF, PREPARATION METHOD THEREFOR, AND USE THEREOF” (Shanghai Hansoh Biomedical Co., Ltd., priority 2021, published 2024)
Counter-ions that a name gives are not always drawn.

Assays:
[1] = Stability study of salt (5 days and 10 days, HPLC related substances); assay type: physicochemical
Protocol: 2.1.3 Stability Study of Salt
Hydrochloride and p-toluenesulfonate of N-(trans-3-(2-(4-(2,3-dichlorophenyl)piperazin-1-yl)ethyl)cyclobutyl)oxazole-2-carboxamide were weighed about 1 mg, respectively, and then placed under light (5000 lux), high temperature (60° C.), high humidity (92.50 RH), high temperature and high humidity (50° C. and 75% RH) for 5 days and 10 days, then a diluent DMSO was added to prepare a solution with salt concentration of about 1 mg/mL.
The chromatographic peak area normalization method was used to calculate the changes of related substances.

[2] = Hygroscopicity study of salt (DVS); assay type: physicochemical
Source text: 2.1.4 Hygroscopicity Study of Salt
The hygroscopicity of a drug refers to the characteristics of the drug's ability or degree of water absorption at a certain temperature and humidity. […] (DVS) was used to characterize the ability of drugs to absorb water under different humidity conditions. The instrument parameters are detailed in the table below.

[3] = Solubility of hydrochloride in different media; assay type: physicochemical; conditions: 37° C.
Protocol: 2.1.5 Solubility of Hydrochloride in Different Media
1.0 mg of compound was weighed into a 2 mL glass bottle, then 1 mL of dissolving medium was added respectively. The glass bottle was shaken overnight on an electrothermal constant temperature shaking tank, and the temperature was set to 37° C. After 24 hours, the sample solution was filtered with a […] mixed water fiber filter membrane, and the subsequent filtrate was taken to test its content by HPLC. HPLC detection methods are described in “Stability Study Conditions”.

[4] = Crystal form stability study of hydrochloride for 30 days; assay type: physicochemical
Protocol: 9. Crystal Form Stability Study of Hydrochloride for 30 Days
The 30 days stability of hydrochloride of N-(trans-3-(2-(4-(2,3-dichlorophenyl)piperazin-1-yl)ethyl)cyclobutyl)oxazole-2-carboxamide under four conditions of 60° C. (closed), 40° C. & RH 75% (open), 25° C./RH 92.5% (open) and light (5000±500 Lux) was detected, which provided scientific basis for the production, packaging, storage and transportation conditions of drugs.
The diluent 80% methanol solution was added to prepare a solution containing about 0.5 mg/mL hydrochloride. The mixture was sonicated for 30 min to produce a clear solution. 1 mL of the solution was filtered and measured by HPLC. See “2.3.4” for the HPLC analysis method. The content of related substances was calculated according to the peak area normalization method, and the results are shown in Table 32 below.

[5] = Solid stability experiment of crystal form of salt; assay type: physicochemical
Protocol: 4. Solid Stability Experiment
The physicochemical stability of crystal form of salt of compound N-(trans-3-(2-(4-(2,3-dichlorophenyl)piperazin-1-yl)ethyl)cyclobutyl)oxazole-2-carboxamide under the conditions of light 50001×, high temperature 60° C., high humidity 92.5% RH and high temperature and high humidity 50° C. 75% RH was investigated, which provided a basis for crystal form screening and compound crystal form storage.
About 1 mg of different crystal forms of salt were taken and placed under the conditions of light 50001×, high temperature 60° C., high humidity 92.5% RH, high temperature and high humidity 50° C. 75% RH for 5 days and 10 days. The salt content was determined by HPLC and external standard method, and the change of relevant substances was calculated by chromatographic peak area normalization method.

[6] = Pressure crystal transformation test; assay type: physicochemical; conditions: before and after pressure, tablet press at maximum pressure
Source text: 4.5 Pressure Crystal Transformation Test
The tablet press was adjusted to the maximum pressure. It was pressed into a tablet and then was subjected to PXRD characterization.

[7] = Grinding crystal transformation test; assay type: physicochemical; conditions: before and after grinding in a mortar for 5 min
Source text: 4.6 Grinding Crystal Transformation Test

[8] = Hygroscopicity experiment of crystal form A of hydrochloride; assay type: physicochemical
Source text: 5 Hygroscopicity Experiment

[9] = Thermodynamic stability experiment of crystal form (pulping in solvents); assay type: physicochemical; conditions: for Results (crystal form after pulping, XRPD): pulped 1 week at room temperature and 50° C.
Protocol: 6. Thermodynamic Stability Experiment of Crystal Form
An organic solvent with a certain solubility was selected. […] The supernatant was discarded, and the solid was dried in vacuum (−0.1 Mpa) overnight at 50° C. The XRPD of the solid was determined and compared with XRPD of raw compound salt.

[10] = Salt form quantification by HPLC-ELSD; assay type: physicochemical
Protocol: 7. Salt Form Quantification
The number of acids binding in the salt form was quantified by HPLC-ELSD test.
An appropriate amount of NaCl was weighed, and a series of linear solutions of different concentrations with the diluent acetonitrile-water (50:50) was prepared.
The above linear solution and hydrochloride samples solution was taken to filter.
7.3 Experimental results: The content of hydrochloric acid in hydrochloride was calculated according to the external standard method, and the quantitative results of hydrochloride are shown in Table 30.

[11] = Pharmacokinetics study in rats; assay type: in vivo
Source text: 8. Pharmacokinetics Study in Rats

[12] = GWGS-5 d (high temperature and high humidity)
[13] = GWGS-10 d (high temperature and high humidity)
[14] = high temperature, light, high humidity, high temperature and high humidity, 5 and 10 days
[15] = WS-30 d (high temperature and high humidity)
[16] = High humidity, 5 Days, listed as Crystal form A of hydrochloride
[17] = High temperature and high humidity, 5 Days
[18] = High temperature and high humidity, 10 Days
[19] = Light, 5 Days, listed as Crystal form A of hydrochloride
[20] = Light, 10 Days, listed as Crystal form A of hydrochloride
[21] = light, 60° C., 92.5% RH, 50° C. 75% RH, 5 and 10 days
[22] = 30 days, light, 60° C., 92.5% RH, 40° C. & 75% RH

Cl.O=C(N[C@H]1C[C@H](CCN2CCN(c3cccc(Cl)c3Cl)CC2)C1)c1ncco1 [N-(trans-3-(2-(4-(2,3-dichlorophenyl)piperazin-1-yl)ethyl)cyclobutyl)oxazole-2-carboxamide hydrochloride]
RRT 1.000 Area % ([1]; 0 d): 99.619%
RRT 1.050 Area % ([1]; 0 d): 0.153%
RRT 1.200 Area % ([1]; 0 d): 0.163%
RRT 1.550 Area % ([1]; 0 d): 0.065%
total Area % (related substances) ([1]; 0 d): 0.381%
RRT 0.220 Area % ([1]; GS-5 d (high humidity)): 0.055%
RRT 1.000 Area % ([1]; GS-5 d (high humidity)): 99.556%
RRT 1.050 Area % ([1]; GS-5 d (high humidity)): 0.160%
RRT 1.200 Area % ([1]; GS-5 d (high humidity)): 0.161%
RRT 1.550 Area % ([1]; GS-5 d (high humidity)): 0.069%
total Area % (related substances) ([1]; GS-5 d (high humidity)): 0.444%
RRT 1.000 Area % ([1]; GS-10 d (high humidity)): 99.619%
RRT 1.050 Area % ([1]; GS-10 d (high humidity)): 0.153%
RRT 1.200 Area % ([1]; GS-10 d (high humidity)): 0.163%
RRT 1.550 Area % ([1]; GS-10 d (high humidity)): 0.065%
total Area % (related substances) ([1]; GS-10 d (high humidity)): 0.381%
RRT 1.000 Area % ([1]; GW-5 d (high temperature)): 99.604%
RRT 1.050 Area % ([1]; GW-5 d (high temperature)): 0.164%
RRT 1.200 Area % ([1]; GW-5 d (high temperature)): 0.163%
RRT 1.550 Area % ([1]; GW-5 d (high temperature)): 0.068%
total Area % (related substances) ([1]; GW-5 d (high temperature)): 0.396%
RRT 1.000 Area % ([1]; GW-10 d (high temperature)): 99.590%
RRT 1.050 Area % ([1]; GW-10 d (high temperature)): 0.170%
RRT 1.200 Area % ([1]; GW-10 d (high temperature)): 0.163%
RRT 1.550 Area % ([1]; GW-10 d (high temperature)): 0.077%
total Area % (related substances) ([1]; GW-10 d (high temperature)): 0.410%
RRT 1.000 Area % [1, 12]: 99.603%
RRT 1.050 Area % [1, 12]: 0.144%
RRT 1.200 Area % [1, 12]: 0.165%
RRT 1.550 Area % [1, 12]: 0.088%
total Area % (related substances) [1, 12]: 0.397%
RRT 1.000 Area % [1, 13]: 99.614%
RRT 1.050 Area % [1, 13]: 0.157%
RRT 1.200 Area % [1, 13]: 0.161%
RRT 1.550 Area % [1, 13]: 0.067%
total Area % (related substances) [1, 13]: 0.386%
RRT 1.000 Area % ([1]; GZ-5 d (light)): 99.617%
RRT 1.050 Area % ([1]; GZ-5 d (light)): 0.148%
RRT 1.200 Area % ([1]; GZ-5 d (light)): 0.160%
RRT 1.550 Area % ([1]; GZ-5 d (light)): 0.075%
total Area % (related substances) ([1]; GZ-5 d (light)): 0.383%
RRT 1.000 Area % ([1]; GZ-10 d (light)): 99.604%
RRT 1.050 Area % ([1]; GZ-10 d (light)): 0.162%
RRT 1.200 Area % ([1]; GZ-10 d (light)): 0.158%
RRT 1.550 Area % ([1]; GZ-10 d (light)): 0.077%
total Area % (related substances) ([1]; GZ-10 d (light)): 0.396%
growth of impurities [1, 14]: no significant growth of impurities
stability of salt [1, 14]: good stability
hygroscopicity (DVS) [2]: slightly hygroscopic
solubility in different pH buffers (dependence) ([3]; 24 hours): pH-dependent
solubility ([3]; acidic conditions): better solubility
solubility ([3]; neutral or alkaline conditions): poor solubility
solubility in water compared with free base ([3]; water): greatly improved
RRT 1.00 Area % ([4]; 0 d): 99.44%
RRT 1.07 Area % ([4]; 0 d): 0.07%
RRT 1.93 Area % ([4]; 0 d): 0.42%
RRT 2.43 Area % ([4]; 0 d): 0.07%
RRT 1.00 Area % ([4]; GS-30 d (high humidity)): 99.43%
RRT 1.07 Area % ([4]; GS-30 d (high humidity)): 0.11%
RRT 1.93 Area % ([4]; GS-30 d (high humidity)): 0.39%
RRT 2.43 Area % ([4]; GS-30 d (high humidity)): 0.07%
RRT 1.00 Area % ([4]; GW-30 d (high temperature)): 99.51%
RRT 1.07 Area % ([4]; GW-30 d (high temperature)): 0.08%
RRT 1.93 Area % ([4]; GW-30 d (high temperature)): 0.41%
RRT 1.00 Area % ([4]; GZ-30 d (light)): 99.43%
RRT 1.07 Area % ([4]; GZ-30 d (light)): 0.09%
RRT 1.93 Area % ([4]; GZ-30 d (light)): 0.41%
RRT 2.43 Area % ([4]; GZ-30 d (light)): 0.08%
RRT 1.00 Area % [4, 15]: 99.46%
RRT 1.07 Area % [4, 15]: 0.09%
RRT 1.93 Area % [4, 15]: 0.38%
RRT 2.43 Area % [4, 15]: 0.07%

O=C(N[C@H]1C[C@H](CCN2CCN(c3cccc(Cl)c3Cl)CC2)C1)c1ncco1 [crystal form A of hydrochloride, N-(trans-3-(2-(4-(2,3-dichlorophenyl)piperazin-1-yl)ethyl)cyclobutyl)oxazole-2-carboxamide]
Maximum single impurity increase % [5, 16]: 0.06%
Total impurity increase % [5, 16]: 0.06%
Maximum single impurity increase % ([5]; High humidity, 10 Days): <0.02%
Total impurity increase % ([5]; High humidity, 10 Days): <0.02%
Maximum single impurity increase % [5, 17]: <0.02%
Total impurity increase % [5, 17]: <0.02%
Maximum single impurity increase % [5, 18]: <0.02%
Total impurity increase % [5, 18]: <0.02%
Maximum single impurity increase % ([5]; High temperature, 5 Days): <0.02%
Total impurity increase % ([5]; High temperature, 5 Days): <0.02%
Maximum single impurity increase % ([5]; High temperature, 10 Days): <0.02%
Total impurity increase % ([5]; High temperature, 10 Days, listed as Crystal form A of hydrochloride): 0.03%
Maximum single impurity increase % [5, 19]: <0.02%
Total impurity increase % [5, 19]: <0.02%
Maximum single impurity increase % [5, 20]: <0.02%
Total impurity increase % [5, 20]: <0.02%
crystal form stability [5, 21]: stable under all conditions
impurities [5, 21]: not significantly increased
crystal transformation (PXRD) [6]: didn't undergo crystal transformation
crystal transformation (PXRD) [7]: didn't undergo crystal transformation
stability in humid environments [8]: stable in humid environments
thermodynamic stability of crystal form [9]: thermodynamically stable crystal form
Results (crystal form after pulping, XRPD) ([9]; 1,4-Dioxane): Crystal form A
crystal form after being pulped by different solvents ([9]; 1 week, room temperature and 50° C.): does not change
Results (crystal form after pulping, XRPD) ([9]; 2-Butanone): Crystal form A
Results (crystal form after pulping, XRPD) ([9]; 2-Methyl-tetrahydrofuran): Crystal form A
Results (crystal form after pulping, XRPD) ([9]; Acetone): Crystal form A
Results (crystal form after pulping, XRPD) ([9]; Acetonitrile): Crystal form A
Results (crystal form after pulping, XRPD) ([9]; Dichloromethane): Crystal form A
Results (crystal form after pulping, XRPD) ([9]; Ethanol): Crystal form A
Results (crystal form after pulping, XRPD) ([9]; Ethyl acetate): Crystal form A
Results (crystal form after pulping, XRPD) ([9]; Ethyl formate): Crystal form A
Results (crystal form after pulping, XRPD) ([9]; Isopropanol): Crystal form A
Results (crystal form after pulping, XRPD) ([9]; Methanol): Crystal form A
Results (crystal form after pulping, XRPD) ([9]; Methyl tert-butyl ether): Crystal form A
Results (crystal form after pulping, XRPD) ([9]; Tetrahydrofuran): Crystal form A
Results (crystal form after pulping, XRPD) ([9]; Toluene): Crystal form A
Results (crystal form after pulping, XRPD) ([9]; n-Heptane): Crystal form A
Determination of Cl-percentage content in hydrochloride ([10]; Batch 1): 7.82%
Determination of Cl-percentage content in hydrochloride ([10]; Batch 2): 7.90%
exposure versus dose ([11]; dose of 100 mg/kg and 30 mg/kg): dose-related
in vivo exposure compared with crystal form B of free base ([11]; gavage): increased
stability ([4]; 30 days): good stability
crystal form change (PXRD) [4, 22]: does not undergo crystal form change
impurities (HPLC) [4, 22]: do not increase significantly
